Literature values as cited in patent US20240148709A1, “METHODS OF TREATING EYE PAIN AND EYE DISORDERS” (Aisa Pharma, Inc., priority 2022, published 2024).

Conditions: oral dosing; cited from earlier work

Compound: CCOC(=O)C1=C(COCCN)NC(C)=C(C(=O)OC)C1c1ccccc1Cl (stereo not shown) [amlodipine]
- time to achieve maximal plasma concentration (Tmax): 10 h
